Laboratory results: patent US20260184701A1, “FIVE-MEMBERED HETEROARYL COMPOUND AND AGRICULTURAL AND HORTICULTURAL FUNGICIDE” (Nippon Soda Co., Ltd., priority 2022, published 2026)

Legend:
Colletotrichum acutatum = test: Fungicidal effect test against fungus causing apple anthracnose (spore suspension, turbidity); format: cell-based; details: 96 h, 25 ppm by volume, Czapek medium, 25° C., four days
Glomerella cingulata = test: Fungicidal effect test against fungi causing grape ripe rot disease (spore suspension, turbidity); format: cell-based; details: Colletotrichum gloeosporioides, 72 h; 25 ppm by volume; Vogel medium; 25° C., three days
Botrytis cinerea = test: Control test of cucumber gray mold (sprayed young cucumber seedlings, inoculated); details: in Cucumis sativus, 96 h, read-out: control value
Procedure: Water was added to the emulsion to obtain a drug liquid in which the concentration of the five-membered heteroaryl compound according to the present invention reached a predetermined concentration. Then, the drug liquid was sprayed onto young cucumber seedlings cultivated in a nursery pot (variety “Jihai”-based, cotyledon stage), and then air-dried. […] They were left still in a moist room at 20° C.

Row | SMILES | inhibition of growth at 25 ppm (Colletotrichum acutatum) [%] | inhibition of growth at 25 ppm (Glomerella cingulata) [%] | pest or weed control at 25 ppm (Botrytis cinerea) [%] | pest or weed control at 125 ppm (Botrytis cinerea) [%]
1 | C=C/C(=C\C=C\C)CCN/C(=N\OC)c1c(Oc2cccc(Br)c2)cnn1C [a-2] | ≥ 75 | ≥ 75 | ≥ 75 | –
2 | Cc1ccc(CC2CON=C(c3c(Oc4cccc(C5CC5)c4)cnn3C)N2)c(C)c1 (stereo not drawn) [a-3] | ≥ 75 | ≥ 75 | – | ≥ 75
3 | C=C(C)/C(=C\C=C\C)CC(CON)NCc1c(Oc2ccc(Br)cc2)cnn1C (stereo not drawn) [a-5] | ≥ 75 | ≥ 75 | – | –
4 | CO/N=C(\NCCC1CC=C(C)C=C1C)c1c(Oc2ccc(C3CC3)cc2)cnn1C (stereo not drawn) [a-6] | – | ≥ 75 | – | –
5 | Cc1ccc(Oc2cnn(C)c2C2=NOCC(Cc3ccc(C)cc3C)N2)cc1 (stereo not drawn) [a-7] | ≥ 75 | ≥ 75 | – | –
6 | CO/N=C(\NCCc1ccc(C)cc1)c1c(Oc2cccc(I)c2)cnn1C [a-8] | ≥ 75 | ≥ 75 | – | ≥ 75
7 | CCc1cccc(Oc2cnn(C)c2C2=NOCC(Cc3ccc(C)cc3C)N2)c1 (stereo not drawn) [a-10, 5-(2,4-dimethylbenzyl)-3-(4-(3-ethylphenoxy)-1-methyl-1H-pyrazol-5-yl)-5,6-dihydro-4H-1,2,4-oxadiazine] | ≥ 75 | ≥ 75 | – | –
8 | Cc1cccc(Oc2nnn(C)c2C2=NOCC(Cc3ccc(C)cc3C)N2)c1 (stereo not drawn) [a-12] | ≥ 75 | ≥ 75 | ≥ 75 | ≥ 75
9 | CO/N=C(\NCCc1ccc(C)cc1)c1c(Oc2ccc(Cl)c(C)c2)nnn1C [a-13] | ≥ 75 | ≥ 75 | – | –
10 | CO/N=C(\NCCc1ccc(C)cc1C)c1c(Oc2cccc(C(F)(F)F)c2F)nnn1C [a-16] | ≥ 75 | ≥ 75 | – | –
11 | C/C=C(C)\C=C(\C)CCCN/C(=N\OC)c1c(Oc2cccc(Cl)c2)cnn1C [a-17] | ≥ 75 | ≥ 75 | – | –
12 | Cc1cccc(Oc2c(Cl)nn(C)c2C2NOCC(Cc3ccc(C)cc3C)N2)c1 (stereo not drawn) [a-18] | ≥ 75 | ≥ 75 | – | –
13 | C/C=C(C)\C=C(\C)CCC1CON=C(c2c(Oc3cccc(Br)c3F)cnn2C)N1 (stereo not drawn) [a-19] | ≥ 75 | ≥ 75 | – | –
14 | CCn1ncc(Oc2cccc(C)c2)c1CNC(CON)Cc1ccc(C)cc1C (stereo not drawn) [a-20] | ≥ 75 | ≥ 75 | – | –
15 | C/C=C(Cl)\C=C(\Cl)CCC1CON=C(c2c(Oc3cccc(C)c3)cnn2CC)N1 (stereo not drawn) [a-21] | ≥ 75 | ≥ 75 | – | –
16 | C=C/C(=C\C=C\Br)CCN/C(=N\OC)c1c(Oc2cccc(C)c2)cnn1CC [a-22] | ≥ 75 | ≥ 75 | – | –
17 | CO/N=C(\NCCc1ccc(Br)cc1)c1c(Oc2cccc(C)c2)cnn1C [a-23] | ≥ 75 | ≥ 75 | – | –
18 | Cc1ccc(CC2CON=C(c3c(Oc4cccc(Br)c4)cnn3CC(F)(F)F)N2)cc1 (stereo not drawn) [a-24] | ≥ 75 | ≥ 75 | – | –
19 | Cn1ncc(Oc2cccc(C(F)(F)F)c2)c1C1=NOCC(c2cccs2)N1 (stereo not drawn) [a-25, 3-(1-methyl-4-(3-(trifluoromethyl)phenoxy)-1H-pyrazol-5-yl)-5-(thiophen-2-yl)-5,6-dihydro-4H-1,2,4-oxadiazine] | – | ≥ 75 | – | –
20 | Cc1ccc(C2CON=C(c3c(Oc4cccc(C(F)(F)F)c4)cnn3C)N2)s1 (stereo not drawn) [a-26, 3-(1-methyl-4-(3-(trifluoromethyl)phenoxy)-1H-pyrazol-5-yl)-5-(5-methylthiophen-2-yl)-5,6-dihydro-4H-1,2,4-oxadiazine] | ≥ 75 | ≥ 75 | – | –
21 | C=C/C(=C\C=C\C)CC1CON=C(c2c(Oc3cccc(C)c3)cnn2C(C)C)N1 (stereo not drawn) [a-27] | ≥ 75 | ≥ 75 | ≥ 75 | ≥ 75
22 | Cc1cc(C2CON=C(c3c(Oc4cccc(C(F)(F)F)c4)cnn3C)N2)c(C)s1 (stereo not drawn) [a-28] | ≥ 75 | ≥ 75 | – | –
23 | Cc1ccc(C(CON)NCc2c(Oc3cccc(C(F)(F)F)c3)cnn2C)o1 (stereo not drawn) [a-29] | – | ≥ 75 | – | –
24 | CCn1nc(Cl)c(Oc2cccc(C(F)(F)F)c2)c1C1=NOCC(Cc2ccc(C)cc2C)N1 (stereo not drawn) [a-30, 3-(3-chloro-1-ethyl-4-(3-(trifluoromethyl)phenoxy)-1H-pyrazol-5-yl)-5-(2,4-dimethylbenzyl)-5,6-dihydro-4H-1,2,4-oxadiazine] | ≥ 75 | ≥ 75 | ≥ 75 | ≥ 75
25 | C=C/C(=C\C=C\C)CC1CON=C(c2c(Oc3cccc(C)c3)c(C)nn2C)N1 (stereo not drawn) [a-31] | ≥ 75 | ≥ 75 | – | –
26 | CO/N=C(\NCCc1ccc(C)cc1C)c1c(Oc2cccc(C#N)c2)cnn1C [a-33] | ≥ 75 | ≥ 75 | – | –
27 | C/C=C(C#N)\C=C(\C)CCC1CON=C(c2c(Oc3cccc(C)c3)cnn2C)N1 (stereo not drawn) [a-34] | ≥ 75 | ≥ 75 | – | ≥ 75
28 | C/C=C/c1ccc(CC2CON=C(c3c(Oc4cccc(C)c4)cnn3C)N2)c(C)c1 (stereo not drawn) [a-35] | ≥ 75 | ≥ 75 | – | –
